# Source: PMC2846469, “Pharmacokinetic Study of a Novel Antihyperlipidemic Agent LM-13765- A Prodrug” (Indian Journal of Pharmaceutical Sciences, 2009)
# “Also recorded” adds a separate entry of the source.
# Legend:
# [1] = test system: hyperlipidemic rats; test: Biological screening for antihyperlipidemic activity on hyperlipidemic rats; type: in vivo
# [2] = Stability in plasma under storage conditions; type: in vitro ADME, rabbit; conditions: -20°, one day (24 h)
# Procedure: The method was validated in terms of linearity, limit of quantitation, limit of detection, precision, accuracy and specificity. The linear response for LM 13765 spiked in plasma, was determined by analyzing corresponding samples five times for each concentration in the range of 12.5 to 100 ng/spot. The lowest concentration of the calibration range is taken as the limit of quantitation for LM 13765 while the limit of detection was determined by spotting concentrations of LM 13765 lower than the limit of quantitation. […] The recovery of LM 13765 from plasma (extraction efficiency) was determined by comparing peak areas obtained from plasma spiked with LM 13765 at concentration levels of 12.5, 25, 50, 75 and 100 ng/spot with the corresponding standards of LM 13765. Accuracy of the proposed method was determined by standard addition method at three different concentrations of LM 13765 in the range of 12.5 to 100 ng/spot. Specificity of the proposed method was assessed in terms of purity of chromatographic peak corresponding to LM 13765 by correlating the spectra scanned at peak start, peak apex and peak end positions of the spot corresponding to LM 13765. […] The sample was analyzed, on the same day as well as after 24 h storage, for the amounts of LM 13765. […]
# [3] = test system: serum cholesterol, triglycerides and HDL levels; design: method as in PMID 9037441; conditions: cited from earlier work
# [4] = Preliminary in vivo study: serum LM 13765 by HPTLC after oral LM 13765; design: species or system rabbits (New Zealander strain); conditions: rabbits, oral 100 mg/kg, samples 0.5-12 h
# Procedure: Drug/metabolite-free plasma or plasma spiked with fixed aliquots of LM 13765 or rabbit serum sample (0.2 ml) was taken in a glass centrifuge tube (15 ml capacity). Sufficient amount of acetonitrile was added to make the volume to 1.6 ml and vortexed at high speed for 1 min. The mixture was centrifuged (2500 rpm, 15 min) and the clear supernatant layer was transferred to another tube and dried over anhydrous sodium sulphate (0.25 g). Adequate volumes of the dried acetonitrile layer were spotted onto the TLC plate. Chromatographic estimations were performed using precoated silica gel 60 F254 TLC plates (prewashed with methanol and dried in air) under following conditions; A mobile phase, benzene:methanol (8:2 v/v); chamber saturation time, 60 min; temperature, 25±2°; development of plates, ascending mode; migration distance, 50 mm; slit dimension, 3×0.3 mm; wavelength of detection, 314 nm; band width, 4 mm; space between two bands, 4 mm; spraying rate, 10 μl/s.
# Suitable volumes of standard solution of LM 13765 in acetonitrile or extracts of drug/metabolite-free plasma or rabbit serum samples, were applied on TLC plate under nitrogen stream using semiautomatic spotter. The plate was dried in air and developed at constant temperature (25±2°) using a mixture of benzene:methanol (8:2 v/v) as the mobile phase. […] Peak area values were used for quantitative determination. […]
# [5] = test system: mice; conditions: up to the dose of 4.5 g/kg, earlier study reported in the introduction; cited from earlier work
SMILES,antihyperlipidemic activity relative to parent compound LM 13765 [1],Stability in plasma under storage conditions [2],potency versus standard drug gemfibrozil in lowering serum cholesterol and triglycerides and elevating serum HDL [3],Parent LM 13765 in serum after oral administration (HPTLC spot Rf 0.21) [4],mortality or behavioral changes after oral administration [5]
"CCOC(=O)C(C#N)=C(N)Nc1ccc(Cl)cc1 [LM 13765-C, ethyl 3-amino-2-cyano-3-(p-chloroanilino)acrylate]",less potent than the parent compound; also recorded: very good antihyperlipidemic activity but is less potent than the parent compound,stable,,,
"CCOC(=O)C(C#N)=C(NC=N)Nc1ccc(Cl)cc1 [LM 13765, N-[2-carbethoxy-2-cyano-1-(p-chloroanilino)vinyl]formamidine]",,undergoes significant degradation in one day,more potent than the standard drug gemfibrozil,no spot corresponding to LM 13765,no mortality or behavioral changes
